{"source": "patent US20050170966A1", "about": "“Surfactants and surfactant compositions” (priority 2002, published 2005)", "tested_on": "mixtures of weeds: Cockspur (Echinochloa crus-galli), Fat-hen (Chenopodium album), Smartweed (Polygonum persicaria)", "assay": "Field trial: adjuvant effect on Glyphosate herbicidal activity on mixed weed plots", "format": "in vivo", "details": "glyphosate 1080 g(a.e.).ha^-1, adjuvant 540 g.ha^-1 (2:1)", "method": "This Example tests the effect of adjuvants on Glyphosate herbicidal activity under field conditions. The herbicide was applied to test plots of weeds at a rate of 1080 g(a.e.).ha^−1 (350 l.ha^−1 of spray containing 3.086 g.l^−1 a.e.) with a weight ratio of active to adjuvant of 2:1=540 g(adjuvant).ha^−1. Spray plots were treated with the herbicide formulations, one of each of four adjuvants of the invention (SE1, SE2, SE3, and SE4) a fatty amine ethoxylate (FAE1) for comparison, or left untreated as controls (no weed control). The spray plots were in a completely randomised block design with 3 replicates of 3×5 m plots. the sprayed plots were sprayed using a compressed-air AZO sprayer at a pressure of 2.5 bar, equipped with Teejet XR80015VS nozzles. During this trial, it rained for about 15 minutes about 2 hours after spraying, giving a good indication of the rainfastness off the formulations tested.\nThe test plots used mixtures of the following weeds at the 2 to 4 leaf stage:\nThe results of spraying were evaluated by visual comparison with untreated control blocks 12, 20 and 35 days after treatment (DAT), assessing chlorosis (chlor) and growth inhibition (inhib) as percentages with 0=no effect and 100=complete kill as compared with the untreated controls.", "key": {"[1]": {"details": "12 DAT, 0=no effect, 100=complete kill"}}}
{"molecule": "1-[Bis-(2-hydroxyethyl)-amino]-2-hydroxypropane-3-(stearyl 25-ethoxylate) [SE4]", "values": [{"measurement": "inhib (%) growth inhibition", "setting": "12 DAT", "result": 62, "unit": "%"}, {"measurement": "chlor (%) chlorosis", "setting": "[1]", "result": 63, "unit": "%"}, {"measurement": "chlor (%) chlorosis", "setting": "20 DAT", "result": 75, "unit": "%"}, {"measurement": "inhib (%) growth inhibition", "setting": "20 DAT", "result": 75, "unit": "%"}, {"measurement": "chlor (%) chlorosis", "setting": "35 DAT", "result": 65, "unit": "%"}, {"measurement": "inhib (%) growth inhibition", "setting": "35 DAT", "result": 68, "unit": "%"}]}
{"molecule": "1-[Diethylamino]-2-hydroxypropane-3-(Alc1 15-ethoxylate) [SE1]", "values": [{"measurement": "inhib (%) growth inhibition", "setting": "12 DAT", "result": 67, "unit": "%"}, {"measurement": "chlor (%) chlorosis", "setting": "[1]", "result": 62, "unit": "%"}, {"measurement": "chlor (%) chlorosis", "setting": "20 DAT", "result": 77, "unit": "%"}, {"measurement": "inhib (%) growth inhibition", "setting": "20 DAT", "result": 78, "unit": "%"}, {"measurement": "chlor (%) chlorosis", "setting": "35 DAT", "result": 78, "unit": "%"}, {"measurement": "inhib (%) growth inhibition", "setting": "35 DAT", "result": 78, "unit": "%"}]}
{"molecule": "CCCCCCCCCCCCCCCCCCOCCOCCOCCOCCOCCOCCOCCOCCOCCOCCOCCOCCOCCOCCOCCOCCOCCOCCOCCOCCOCCOCCOCCOCCOCCOCC(O)CN(CC)CC", "note": "(stereo not drawn) [SE3, 1-diethylamino-2-hydroxypropane-3-(stearyl 25-ethoxylate)]", "values": [{"measurement": "inhib (%) growth inhibition", "setting": "12 DAT", "result": 63, "unit": "%"}, {"measurement": "chlor (%) chlorosis", "setting": "[1]", "result": 62, "unit": "%"}, {"measurement": "chlor (%) chlorosis", "setting": "20 DAT", "result": 72, "unit": "%"}, {"measurement": "inhib (%) growth inhibition", "setting": "20 DAT", "result": 72, "unit": "%"}, {"measurement": "chlor (%) chlorosis", "setting": "35 DAT", "result": 68, "unit": "%"}, {"measurement": "inhib (%) growth inhibition", "setting": "35 DAT", "result": 75, "unit": "%"}]}
